These results are taken from US8853263B2, “Co-therapy for the treatment of epilepsy and related disorders” (Janssen Pharmaceutica NV, priority 2006, dated 2014).

For `NS(=O)(=O)NC[C@H]1COc2cc(Cl)c(Cl)cc2O1` [Compound #29, (2S)-(−)-N-(6,7Dichloro-2,3-dihydro-benzo[1,4]dioxin-2-ylmethyl)-sulfamide], the melting point (in general, the temperature of the solid-liquid transition) was in the range of 119 to 121 °C.

For `NS(=O)(=O)NCCC1COc2ccccc2O1` (stereo not shown) [Compound #16, 2-(2,3-Dihydro-benzo[1,4]dioxin-2-yl)-ethylsulfamide], the melting point lay in the range of 101 to 103 °C.

`NS(=O)(=O)NCC1CCc2ccccc2O1` (stereo not shown) [Compound #10, Chroman-2-ylmethylsulfamide]: the melting point lay within 100 to 101 °C.

For `CN(C)S(=O)(=O)NCC1COc2ccccc2O1` (racemic) [Compound #6, N-(2,3-Dihydro-benzo[1,4]dioxin-2-ylmethyl)-N′,N′dimethylsulfamide], the melting point was 76 to 78 °C.
